Here are results for eleven compounds from PubChem BioAssay AID1338 (Columbia University Molecular Screening Center, 2008).

The target of the experiment is Tyrosine-protein phosphatase non-receptor type 22 (Homo sapiens) (UniProt Q9Y2R2). The experiment is described as follows: LYP phosphatase inhibitors with catalase present, biochemical, catalase added, Infinite200, 384-well (AID 1338). As to conditions: Recombinant LYP, DiFMUP fluorescence, at 10 µM, active compounds read high.

The structures appear in SMILES notation. Calls of active or inactive are those of the source.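 Rule for the calls: active = normalized inhibition above 25%; inactive = normalized inhibition below 25%.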

Chain of Tyrosine-protein phosphatase non-receptor type 22 (Homo sapiens) (Q9Y2R2 whole entry, looked up): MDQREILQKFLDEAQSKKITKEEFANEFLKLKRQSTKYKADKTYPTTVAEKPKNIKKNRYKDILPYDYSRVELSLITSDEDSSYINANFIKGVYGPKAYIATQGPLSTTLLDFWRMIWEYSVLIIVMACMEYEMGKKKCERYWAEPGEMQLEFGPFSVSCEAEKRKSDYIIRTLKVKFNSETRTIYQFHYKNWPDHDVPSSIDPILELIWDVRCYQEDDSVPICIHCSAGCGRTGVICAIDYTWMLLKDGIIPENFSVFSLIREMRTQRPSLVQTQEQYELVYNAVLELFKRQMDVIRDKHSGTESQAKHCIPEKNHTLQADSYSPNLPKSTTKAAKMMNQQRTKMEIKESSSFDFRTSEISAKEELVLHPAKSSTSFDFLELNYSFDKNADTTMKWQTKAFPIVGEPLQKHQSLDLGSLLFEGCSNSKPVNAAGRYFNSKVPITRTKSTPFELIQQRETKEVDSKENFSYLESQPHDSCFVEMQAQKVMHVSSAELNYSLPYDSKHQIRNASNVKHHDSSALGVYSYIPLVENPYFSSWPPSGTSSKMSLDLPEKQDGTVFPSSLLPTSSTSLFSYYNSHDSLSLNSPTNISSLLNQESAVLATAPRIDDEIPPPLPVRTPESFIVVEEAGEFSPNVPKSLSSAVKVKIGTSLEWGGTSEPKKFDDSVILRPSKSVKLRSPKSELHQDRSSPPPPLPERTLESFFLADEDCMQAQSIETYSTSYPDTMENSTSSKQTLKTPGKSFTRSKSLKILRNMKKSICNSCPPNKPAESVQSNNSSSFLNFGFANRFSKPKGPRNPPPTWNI

In the case of `CC(C)C(C(=O)O)N1C(=O)/C(=C/C=C/c2ccco2)SC1=S` (stereo unspecified), the inhibition (in general, the drop in the measured response relative to a control, in per cent) was 13% (inactive).

For `Cc1ccc(NC(=O)CN2C(=O)S/C(=C\c3cccn3-c3cccc(C(=O)O)c3)C2=O)c(C)c1`, the inhibition is 48.2%.

Regarding `Nc1c(C(=O)Nc2nc3ccccc3s2)sc2nc(-c3cccs3)ccc12`, the inhibition is 32.2%.

For `O=C(O)CCN1C(=O)/C(=C/c2ccc(-c3nc4ccccc4s3)o2)SC1=S`, the inhibition is 48.9%.

`COc1cc(-c2nnc(SCc3cc(=O)oc4cc(O)c(O)cc34)o2)cc(OC)c1OC`: the inhibition is 49%.

As to `CC(C(=O)O)N1C(=O)/C(=C/C=C/c2ccco2)SC1=S` (stereo unspecified), the inhibition is 2.7% (inactive).

As to `O=C(O)CCCN1C(=O)/C(=C/c2ccc(-c3nc4ccccc4s3)o2)SC1=S`, the inhibition is 36.5%.

In the case of `O=C(c1cccs1)c1no[n+]([O-])c1C(=O)c1cccs1`, the inhibition is 51.5%.

As for `O=[N+]([O-])c1cc(/C=N\Nc2nccs2)ccc1O`, the inhibition is 4% (inactive).

Regarding `COc1cccc(OC)c1-c1nn2c(-c3cc(-c4ccccc4)n[nH]3)nnc2s1`, the inhibition is 54.4%.

As to `Cn1nc(-c2ccc(Cl)cc2)nc2c(=O)n(C)c(=O)nc1-2`, the inhibition is 34.1%.
